Laboratory results from patent US20130217664A1, “NOVEL COMPOUNDS USEFUL FOR THE TREATMENT OF DEGENERATIVE AND INFLAMMATORY DISEASES” (priority 2012, published 2013).
pIC50: −log10 of the molar value.

How the values were obtained:
Assay type in all cases: biochemical
human JAK1 = target: T1, human JAK1 (Homo sapiens, UniProt P23458); assay: JAK1 inhibition assay (polyGT substrate / Ulight-JAK1 peptide); details: recombinant human JAK1 catalytic domain; polyGT or Ulight-JAK1 peptide assay
T1 construct: catalytic domain, amino acids 866-1154; catalog number PV4774; purchased Invitrogen PV4774
Procedure, shortened: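 Signal scaled between vehicle and 10 μM staurosporine. Radiometric polyGT reactions ran 45 min at 30 °C, counted after phosphoric-acid stop. Ulight peptide reactions ran 60 min at room temperature, fluorescence read after adding Eu-PT66 detection mix with EDTA.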

human JAK2 = target: T2, human JAK2 (Homo sapiens, UniProt O60674); assay: JAK2 inhibition assay (polyGT substrate / Ulight-JAK1 peptide); details: recombinant human JAK2 catalytic domain; polyGT or Ulight-JAK1 peptide assay
T2 construct: catalytic domain (amino acids 808-1132; catalog number PV4210); GST; purchased Invitrogen PV4210
Protocol: 1.2 JAK2 Inhibition Assay
1.2.1 JAK2 Assay polyGT Substrate
0.025 mU of JAK2 is incubated with 2.5 μg polyGT substrate (Sigma catalog number P0275) in kinase reaction buffer (5 mM MOPS pH 7.5, 9 mM MgAc, 0.3 mM EDTA, 0.06% Brij and 0.6 mM DTT, 1 μM non-radioactive ATP, 0.25 μCi ^33P-gamma-ATP (GE Healthcare, catalog number AH9968) final concentrations) with or without 5 μL containing test compound or vehicle (DMSO, 1% final concentration), in a total volume of 25 μL, in a polypropylene 96-well plate (Greiner, V-bottom). After 90 min at 30° C., reactions are stopped by adding of 25 μL/well of 150 mM phosphoric acid. […] Plates are washed 6 times with 300 μL per well of a 75 mM phosphoric acid solution and the bottom of the plates is sealed. 40 μL/well of Microscint-20 is added, the top of the plates is sealed and readout is performed using the Topcount (Perkin Elmer). Kinase activity is calculated by subtracting counts per min (cpm) obtained in the presence of a positive control inhibitor (10 μM staurosporine) from cpm obtained in the presence of vehicle. The ability of a test compound to inhibit this activity is determined as:
(§1) Percentage inhibition=((cpm determined for sample with test compound present−cpm determined for sample with positive control inhibitor)divided by(cpm determined in the presence of vehicle−cpm determined for sample with positive control inhibitor))*100.
Dose dilution series are prepared for the compounds enabling the testing of dose-response effects in the JAK2 assay and the calculation of the IC50 for each compound.
1.2.2 JAK2 Ulight-JAK1 Peptide Assay
After 60 min at room temperature, reactions were stopped by adding 20 μL/well of detection mixture (1× detection buffer (Perkin Elmer, catalog number CR97-100C), 0.5 nM Europium-anti-phosphotyrosine (PT66) (Perkin Elmer, catalog number AD0068), 10 mM EDTA). […] Kinase activity was calculated by subtracting relative fluorescence units (RFU) obtained in the presence of a positive control inhibitor (10 μM staurosporine) from RFU obtained in the presence of vehicle. The ability of a test compound to inhibit this activity was determined as:
Percentage inhibition=((RFU determined for sample with test compound present−RFU determined for sample with positive control inhibitor)divided by(RFU determined in the presence of vehicle−RFU determined for sample with positive control inhibitor))*100.
Dose dilution series are prepared for compound enabling the testing of dose-response effects in the JAK2 assay and the calculation of the IC50 for the compound. Each compound is routinely tested at concentration of 20 μM followed by a 1/5 serial dilution, 10 points in a final concentration of 1% DMSO. […] The data are expressed as the average IC50 from the assays±standard error of the mean.

human JAK3 = target: T3, human JAK3 (Homo sapiens, UniProt P52333); assay: JAK3 inhibition assay; details: recombinant human JAK3 catalytic domain; polyGT substrate
T3 construct: catalytic domain (amino acids 781-1124; catalog number PV3855); purchased Invitrogen PV3855
Protocol: 1.3 JAK3 Inhibition Assay
0.5 ng JAK3 protein was incubated with 2.5 μg polyGT substrate (Sigma catalog number P0275) in kinase reaction buffer (25 mM Tris pH 7.5, 0.5 mM EGTA, 10 mM MgCl2, 2.5 mM DTT, 0.5 mM Na3VO4, 5 mM b-glycerolphosphate, 0.01% Triton X-100, 1 μM non-radioactive ATP, 0.25 μCi 33P-gamma-ATP (GE Healthcare, catalog number AH9968) final concentrations) with or without 5 μL containing test compound or vehicle (DMSO, 1% final concentration), in a total volume of 25 μL, in a polypropylene 96-well plate (Greiner, V-bottom). After 45 min at 30° C., reactions were stopped by adding 25 μL/well of 150 mM phosphoric acid. […] Plates were washed 6 times with 300 μL per well of a 75 mM phosphoric acid solution and the bottom of the plates was sealed. 40 μL/well of Microscint-20 was added, the top of the plates was sealed and readout was performed using the Topcount (Perkin Elmer). Kinase activity was calculated by subtracting counts per min (cpm) obtained in the presence of a positive control inhibitor (10 μM staurosporine) from cpm obtained in the presence of vehicle. The ability of a test compound to inhibit this activity was determined as:
as §1
Dose dilution series were prepared for the compounds enabling the testing of dose-response effects in the JAK3 assay and the calculation of the IC50 for each compound. Each compound was routinely tested at concentration of 20 μM followed by a 1/5 serial dilution, 10 points in a final concentration of 1% DMSO.

human TYK2 = target: T4, human TYK2 (Homo sapiens, UniProt P29597); assay: TYK2 inhibition assay; details: recombinant human TYK2 catalytic domain, polyGT substrate
T4 construct: catalytic domain (amino acids 871-1187; catalog number 08-147); purchased Carna Biosciences 08-147
T4 sequence (P29597 871-1187): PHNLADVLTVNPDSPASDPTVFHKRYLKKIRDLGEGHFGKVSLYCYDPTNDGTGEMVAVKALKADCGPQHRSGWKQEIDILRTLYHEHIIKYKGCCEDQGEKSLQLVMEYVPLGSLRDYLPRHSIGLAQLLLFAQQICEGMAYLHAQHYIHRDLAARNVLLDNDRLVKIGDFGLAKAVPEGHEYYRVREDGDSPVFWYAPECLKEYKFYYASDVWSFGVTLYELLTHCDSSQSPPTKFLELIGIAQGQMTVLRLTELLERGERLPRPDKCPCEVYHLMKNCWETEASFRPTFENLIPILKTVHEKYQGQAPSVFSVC
Protocol: 1.4 TYK2 Inhibition Assay
After 90 min at 30° C., reactions were stopped by adding 25 μL/well of 150 mM phosphoric acid. […] Plates were washed 6 times with 300 μL per well of a 75 mM phosphoric acid solution and the bottom of the plates was sealed. 40 μL/well of Microscint-20 was added, the top of the plates was sealed and readout was performed using the Topcount (Perkin Elmer). Kinase activity was calculated by subtracting counts per min (cpm) obtained in the presence of a positive control inhibitor (10 μM staurosporine) from cpm obtained in the presence of vehicle. The ability of a test compound to inhibit this activity was determined as:
as §1
Dose dilution series were prepared for the compounds enabling the testing of dose-response effects in the TYK2 assay and the calculation of the IC50 for each compound.

T3 sequence (P52333 781-1124): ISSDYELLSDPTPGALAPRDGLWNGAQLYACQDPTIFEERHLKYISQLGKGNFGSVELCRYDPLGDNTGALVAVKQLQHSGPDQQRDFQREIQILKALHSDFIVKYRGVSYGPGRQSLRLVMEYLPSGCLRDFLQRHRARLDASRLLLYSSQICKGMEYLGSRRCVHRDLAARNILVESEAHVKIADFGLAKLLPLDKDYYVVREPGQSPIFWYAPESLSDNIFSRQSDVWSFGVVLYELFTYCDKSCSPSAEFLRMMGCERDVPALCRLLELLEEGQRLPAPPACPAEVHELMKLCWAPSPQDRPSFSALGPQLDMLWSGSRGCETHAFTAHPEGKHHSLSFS
T2 sequence (O60674 808-1132): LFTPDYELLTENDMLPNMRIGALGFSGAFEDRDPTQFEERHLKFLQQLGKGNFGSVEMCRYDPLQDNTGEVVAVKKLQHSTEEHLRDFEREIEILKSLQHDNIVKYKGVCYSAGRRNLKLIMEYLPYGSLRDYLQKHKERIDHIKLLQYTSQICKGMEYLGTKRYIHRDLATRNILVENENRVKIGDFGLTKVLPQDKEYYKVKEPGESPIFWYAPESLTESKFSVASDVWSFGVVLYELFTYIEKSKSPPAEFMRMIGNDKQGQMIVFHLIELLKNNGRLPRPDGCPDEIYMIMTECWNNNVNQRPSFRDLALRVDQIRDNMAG
T1 sequence (P23458 866-1154): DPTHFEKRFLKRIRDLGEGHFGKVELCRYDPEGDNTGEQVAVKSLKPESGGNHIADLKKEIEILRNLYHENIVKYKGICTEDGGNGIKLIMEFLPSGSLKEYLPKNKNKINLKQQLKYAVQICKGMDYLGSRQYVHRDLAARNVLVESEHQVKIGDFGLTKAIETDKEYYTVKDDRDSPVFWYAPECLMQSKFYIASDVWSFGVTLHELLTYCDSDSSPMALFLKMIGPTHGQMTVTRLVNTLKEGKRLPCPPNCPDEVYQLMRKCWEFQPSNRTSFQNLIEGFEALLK

pIC50 (human JAK1)	pIC50 (human JAK2)	pIC50 (human JAK3)	pIC50 (human TYK2)	SMILES
6.30 to 7.00	< 6.00	< 6.00	< 6.00	CN(c1ccc(OC(F)(F)F)cc1)c1cc2c(cn1)ncn2C [Compound 1, N,1-dimethyl-N-(4-(trifluoromethoxy)phenyl)-1H-imidazo[4,5-c]pyridin-6-amine]
6.30 to 7.00	< 6.00	< 6.00	6.30 to 7.00	CCN(c1ccc2occc2c1)c1cc2c(cn1)ncn2C [Compound 4, N-(benzofuran-5-yl)-N-ethyl-1-methyl-1H-imidazo[4,5-c]pyridin-6-amine]
6.30 to 7.00	< 6.00	< 6.00	6.30 to 7.00	CN(c1cc2c(cn1)ncn2C)c1ccccc1F [Compound 67, N-(2-fluorophenyl)-N,1-dimethyl-1H-imidazo[4,5-c]pyridin-6-amine]
6.30 to 7.00	< 6.00	< 6.00	< 6.00	Cc1cc(OCc2ccc(C#N)nc2)ccc1N(C)c1cc2c(cn1)ncn2C [Compound 89, 5-((3-methyl-4-(methyl(1-methyl-1H-imidazo[4,5-c]pyridin-6-yl)amino)phenoxy)methyl) picolinonitrile]
7.00 to 11.00	< 6.00	< 6.00	< 6.00	Cc1ccc(OCc2ccc(C#N)nc2)cc1N(C)c1cc2c(cn1)ncn2C [Compound 92, 5-((4-methyl-3-(methyl(1-methyl-1H-imidazo[4,5-c]pyridin-6-yl)amino)phenoxy)methyl) picolinonitrile]
6.30 to 7.00	< 6.00	–	–	CCc1cc(C(=O)N(C)C)ccc1N(C)c1cc2c(cn1)ncn2C [Compound 118, 3-ethyl-N,N-dimethyl-4-(methyl(1-methyl-1H-imidazo[4,5-c]pyridin-6-yl)amino)benzamide]
6.30 to 7.00	< 6.00	–	–	CCc1ccc(COC)cc1N(C)c1cc2c(cn1)ncn2C [Compound 122, N-(2-Ethyl-5-(methoxymethyl)phenyl)-N,1-dimethyl-1H-imidazo[4,5-c]pyridin-6-amine]
6.30 to 7.00	< 6.00	–	–	CCc1ccc(C(=O)NCc2ccccn2)cc1N(C)c1cc2c(cn1)ncn2C [Compound 125, 4-ethyl-3-(methyl(1-methyl-1H-imidazo[4,5-c]pyridin-6-yl)amino)-N-(pyridin-2-ylmethyl)benzamide]
< 6.00	< 6.00	–	–	COc1ccc(Cc2cc3c(cn2)ncn3C)cc1 [Compound 275, 6-(4-methoxybenzyl)-1-methyl-1H-imidazo[4,5-c]pyridine]

The next lines start with the molecule.

SMILES	pIC50 (human JAK1)	pIC50 (human JAK2)	pIC50 (human JAK3)	pIC50 (human TYK2)
COc1ccc(N(C)c2cc3c(cn2)ncn3C)cc1 [Compound 2, N-(4-methoxyphenyl)-N,1-dimethyl-1H-imidazo[4,5-c]pyridin-6-amine]	6.30 to 7.00	< 6.00	< 6.00	< 6.00
CCN(c1ccc2c(cnn2C)c1)c1cc2c(cn1)ncn2C [Compound 5, N-ethyl-1-methyl-N-(1-methyl-1H-indazol-5-yl)-1H-imidazo[4,5-c]pyridin-6-amine]	6.30 to 7.00	< 6.00	< 6.00	6.00 to 6.30
Cc1cc(OCc2cccnc2)ccc1N(C)c1cc2c(cn1)ncn2C [Compound 55, N,1-dimethyl-N-(2-methyl-4-(pyridin-3-ylmethoxy)phenyl)-1H-imidazo[4,5-c]pyridin-6-amine]	6.30 to 7.00	< 6.00	< 6.00	< 6.00
CN(c1cc2c(cn1)ncn2C)c1ccccc1Cl [Compound 68, N-(2-Chlorophenyl)-N,1-dimethyl-1H-imidazo[4,5-c]pyridin-6-amine]	6.30 to 7.00	< 6.00	< 6.00	6.00 to 6.30
CCc1ccc(C(=O)Nc2cccnc2)cc1N(C)c1cc2c(cn1)ncn2C [Compound 124, 4-ethyl-3-(methyl(1-methyl-1H-imidazo[4,5-c]pyridin-6-yl)amino)-N-(pyridin-3-yl)benzamide]	6.30 to 7.00	< 6.00	–	–
CCc1ccc(C(=O)NC)cc1N(C)c1cc2c(cn1)ncn2C [Compound 128, 4-ethyl-N-methyl-3-(methyl(1-methyl-1H-imidazo[4,5-c]pyridin-6-yl)amino)benzamide]	6.30 to 7.00	< 6.00	–	–
CCc1ccccc1Oc1cc2c(cn1)ncn2C [Compound 298, 6-(2-Ethyl-phenoxy)-1-methyl-1H-imidazo[4,5-c]pyridine]	6.00 to 6.30	< 6.00	–	–
CCc1cc(OCC(N)=O)ccc1N(C)c1cc2c(cn1)ncn2C [Compound 299]	7.00 to 11.00	6.30 to 7.00	< 6.00	6.30 to 7.00
CCc1cc(CNC2CCS(=O)(=O)C2)ccc1N(C)c1cc2c(cn1)ncn2C (centres unmarked) [Compound 300, {4-[(1,1-Dioxo-tetrahydro-thiophen-3-ylamino)-methyl]-2-ethyl-phenyl}-methyl-(1-methyl-1H-imidazo[4,5-c]pyridin-6-yl)-amine]	7.00 to 11.00	6.30 to 7.00	< 6.00	6.00 to 6.30
CCc1cc(-c2ccc(C#N)s2)ncc1N(C)c1cc2c(cn1)ncn2C [Compound 301, 5-{4-Ethyl-5-[methyl-(1-methyl-1H-imidazo[4,5-c]pyridin-6-yl)-amino]-pyridin-2-yl}-thiophene-2-carbonitrile]	7.00 to 11.00	7.00 to 11.00	7.00 to 11.00	7.00 to 11.00
CCc1ccccc1N(CCC#N)c1cc2c(cn1)ncn2C [Compound 464, 3-((2-ethylphenyl)(1-methyl-1H-imidazo[4,5-c]pyridin-6-yl)amino)propanenitrile]	–	< 6.00	< 6.00	< 6.00
